Experimental data as given in PubChem BioAssay (NCI).
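How tested: cells in 96-well plates exposed to compound for 48 hours at five concentrations. The concentration for 50% growth inhibition is given as GI50. TGI denotes the concentration required for complete inhibition of growth.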

How the values were obtained:
Assay in all cases: NCI tumour cell line growth inhibition, 48 h
SW-620 colon = system: SW-620 colon
SF-539 CNS = system: SF-539 CNS
HCT-116 colon = system: HCT-116 colon
OVCAR-8 ovarian = system: OVCAR-8 ovarian
SN12C renal = system: SN12C renal
SK-OV-3 ovarian = system: SK-OV-3 ovarian
LOX IMVI melanoma = system: LOX IMVI melanoma
SF-268 CNS = system: SF-268 CNS
MALME-3M melanoma = system: MALME-3M melanoma
SNB-75 CNS = system: SNB-75 CNS

SMILES | GI50 (SW-620 colon) | TGI (SW-620 colon) | GI50 (SF-539 CNS) | TGI (SF-539 CNS) | GI50 (HCT-116 colon) | TGI (HCT-116 colon) | GI50 (OVCAR-8 ovarian) | TGI (OVCAR-8 ovarian) | GI50 (SN12C renal) | TGI (SN12C renal) | GI50 (SK-OV-3 ovarian) | TGI (SK-OV-3 ovarian) | GI50 (LOX IMVI melanoma) | TGI (LOX IMVI melanoma) | GI50 (SF-268 CNS) | TGI (SF-268 CNS) | GI50 (MALME-3M melanoma) | TGI (MALME-3M melanoma) | GI50 (SNB-75 CNS) | TGI (SNB-75 CNS)
Oc1cccc(Nc2nc3ccccc3c3occc23)c1 | 17.1 µM | 30.8 µM | 16.1 µM | 29.6 µM | 17.3 µM | 31.1 µM | 13 µM | 30.5 µM | 13.2 µM | 25.9 µM | 11.7 µM | 23.9 µM | 3.25 µM | 22.4 µM | 4.39 µM | 17.5 µM | – | – | – | –
CC(=O)c1c(C(F)(F)F)n([O-])c2ccccc2[n+]1=O | 1.57 µM | 13.3 µM | 2 µM | 5.38 µM | 1.55 µM | 10.5 µM | 2.96 µM | > 100 µM | 1.07 µM | 3.17 µM | 3.17 µM | 23.9 µM | 1.31 µM | 4.58 µM | 1.49 µM | 6.13 µM | 0.652 µM | 3.06 µM | – | –
Cc1cc2c(C)nn(Cc3ccccc3)c2c(C(=O)O)c1C | – | > 100 µM | – | > 100 µM | – | > 100 µM | – | > 100 µM | – | > 100 µM | – | > 100 µM | – | > 100 µM | – | > 100 µM | – | > 100 µM | – | –
O=C1OCC2=C1C(c1cccc(F)c1)c1cc3c(cc1N2CCO)OCO3 (configuration not stated) | 1.65 µM | > 50 µM | 1.13 µM | 3.61 µM | 1.53 µM | > 50 µM | 3.18 µM | > 50 µM | 3.05 µM | > 50 µM | 1.73 µM | > 50 µM | 2.35 µM | > 50 µM | 3.2 µM | > 50 µM | – | – | 0.82 µM | 2.8 µM
O=C(Oc1cccnc1)c1cccnc1Nc1ccnc(C(F)(F)F)c1 | 5.47 µM | > 100 µM | – | – | 1.76 µM | 3.71 µM | 64.9 µM | > 100 µM | 6.48 µM | > 100 µM | > 100 µM | > 100 µM | 8.16 µM | 26 µM | 5.63 µM | > 100 µM | 13 µM | 69.8 µM | – | –
c1ccc(C2ONC3=NCCN32)cc1 (configuration not stated) | 44.7 µM | > 100 µM | 46.6 µM | > 100 µM | 30.3 µM | > 100 µM | 44.6 µM | > 100 µM | – | – | 37 µM | > 100 µM | 11.3 µM | > 100 µM | 54.3 µM | > 100 µM | 62.9 µM | > 100 µM | 53.4 µM | > 100 µM
Cn1c(=O)nc2n(-c3ccc(O)cc3)c3ccccc3nc-2c1=O | – | > 100 µM | – | 59.7 µM | – | > 100 µM | – | > 100 µM | – | > 100 µM | – | > 100 µM | – | – | – | > 100 µM | – | 69.4 µM | – | > 100 µM
COc1cccc(-c2nc3cc(NC(=O)c4ccc(Cl)c(C#N)c4)ccc3o2)c1 | 4.11 µM | > 100 µM | 1.68 µM | 3.37 µM | 1.8 µM | 3.47 µM | – | – | 3.1 µM | > 100 µM | 2.57 µM | 5.56 µM | 3.7 µM | > 100 µM | – | – | – | – | 2.48 µM | 7.15 µM
CCc1c2c(nc3ccc(OCc4ccc(B(O)O)cc4)cc13)-c1cc3c(c(=O)n1C2)COC(=O)[C@]3(O)CC | 0.0247 µM | > 78 µM | < 0.0117 µM | 0.155 µM | 0.0118 µM | 17.8 µM | 0.0195 µM | > 32.1 µM | < 0.013 µM | > 100 µM | < 0.01 µM | 0.347 µM | < 0.01 µM | 0.15 µM | – | – | 0.0576 µM | 1.59 µM | < 0.0167 µM | 0.321 µM
Cn1c(=O)c(N=Nc2c(=O)n(C)c(=O)n3c2[nH]c2ccccc23)c2[nH]c3ccccc3n2c1=O | – | > 100 µM | – | > 100 µM | – | > 100 µM | – | > 100 µM | – | – | – | > 100 µM | – | > 100 µM | – | > 100 µM | – | > 100 µM | – | 91.6 µM
CCc1cccc(C)c1NS(=O)(=O)c1ccccc1 | – | > 100 µM | – | > 100 µM | – | > 100 µM | – | > 100 µM | – | – | – | > 100 µM | – | – | – | – | – | > 100 µM | – | > 100 µM
COc1cc(Cl)cc(=O)c(O)c1OC | – | – | – | > 100 µM | – | > 100 µM | – | > 100 µM | – | > 100 µM | – | > 100 µM | – | > 100 µM | – | > 100 µM | – | > 100 µM | – | > 100 µM
O=C1C2C3C=C4c5ccccc5N(c5ccccc5)C4(C2C(=O)N1c1ccccc1)C1C(=O)N(c2ccccc2)C(=O)C31 (configuration not stated) | – | > 100 µM | – | – | – | > 100 µM | – | > 100 µM | – | > 100 µM | – | – | – | > 100 µM | – | > 100 µM | – | > 100 µM | – | > 100 µM
C[N+](C)(C)CCC(=O)CC[N+](C)(C)C | – | 35.4 µM | – | 41 µM | – | 33.7 µM | – | 44 µM | – | – | – | > 100 µM | – | – | – | 42.9 µM | – | 47.6 µM | – | 73.3 µM
Cc1nc(C(N)=O)c(N)n1CCN1CCN(C(=O)CCCCCCCCCCNC2N=CNc3nc[nH]c32)CC1 (configuration not stated) | – | > 100 µM | – | > 100 µM | – | > 100 µM | – | > 100 µM | – | > 100 µM | – | > 100 µM | – | > 100 µM | – | > 100 µM | – | > 100 µM | – | –
N#CC(C#N)=C/C=C(\Cl)c1ccc(Cl)cc1 | 1.93 µM | 9.9 µM | 4.66 µM | 15.9 µM | 1.58 µM | 3.76 µM | 10.1 µM | 31.4 µM | 4.52 µM | 26.7 µM | 9.96 µM | > 52.7 µM | 1.18 µM | – | 14.1 µM | 50.5 µM | 2.16 µM | 7.63 µM | – | –
C1CSCCCSCCCSCCCSCCCSCCCSCCCSCCCSC1 | – | > 100 µM | – | > 100 µM | – | > 100 µM | – | > 100 µM | – | > 100 µM | – | > 100 µM | – | > 100 µM | – | > 100 µM | – | > 100 µM | – | –
